Data taken from ChEMBL document CHEMBL1129273, “Structural modifications of thalidomide produce analogs with enhanced tumor necrosis factor inhibitory activity” (J Med Chem, 1996).

Each compound was assayed against T1, Tumor necrosis factor (Homo sapiens, UniProt P01375) (assay: Inhibitory activity of TNF-alpha was measured in the supernatant of human PBMCs stimulated with LPS.).
Assay type: functional

T1 sequence (P01375 whole entry): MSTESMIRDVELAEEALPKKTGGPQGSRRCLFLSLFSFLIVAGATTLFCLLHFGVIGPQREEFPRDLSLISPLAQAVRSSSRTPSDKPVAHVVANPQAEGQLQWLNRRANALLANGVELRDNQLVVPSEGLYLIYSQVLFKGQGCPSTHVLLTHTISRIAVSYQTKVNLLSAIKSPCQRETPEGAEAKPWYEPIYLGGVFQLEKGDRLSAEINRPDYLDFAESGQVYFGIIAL

Row | SMILES | IC50 [µM]
1 | COC(=O)CC(c1ccc(OC)c(OC)c1)N1C(=O)c2c(Cl)ccc(Cl)c2C1=O (stereo unspecified) | 7.9
2 | COC(=O)CC(c1ccc(OC)c(OC)c1)N1C(=O)c2ccc([N+](=O)[O-])cc2C1=O (stereo unspecified) | 34
3 | COC(=O)CC(c1ccc(OC)c(OC)c1)N1C(=O)c2cccc([N+](=O)[O-])c2C1=O (stereo unspecified) | 64
4 | COC(=O)CC(c1ccc(OC)c(OC)c1)N1C(=O)c2cc(Cl)c(Cl)cc2C1=O (stereo unspecified) | 13

The compounds below were run against T1, Tumor necrosis factor (assay: Inhibition of TNF-alpha production in LPS stimulated human PBMCs).
Assay type: functional

Row | SMILES | IC50 [µM]
5 | COc1cccc(C(CC(N)=O)N2C(=O)c3ccccc3C2=O)c1 (stereo unspecified) | 120
6 | COC(=O)CC(c1ccc(OC)c(OC)c1)N1C(=O)c2cc3ccccc3cc2C1=O (stereo unspecified) | 4.7
7 | CNC(=O)CC(c1ccc(OC)c(OC)c1)N1C(=O)c2ccccc2C1=O (stereo unspecified) | 12
8 | N#Cc1ccc(C(CC(N)=O)N2C(=O)c3ccccc3C2=O)cc1 (stereo unspecified) | 150
9 | CCCOc1ccc(C(CC(N)=O)N2C(=O)c3ccccc3C2=O)cc1OCCC (stereo unspecified) | 55
10 | COC(=O)CC(c1ccc(OC)c(OC)c1)N1C(=O)c2ccc(C(C)(C)C)cc2C1=O (stereo unspecified) | 4.2
11 | NC(=O)CC(c1ccc(Cl)c(Cl)c1)N1C(=O)c2ccccc2C1=O (stereo unspecified) | 70
12 | COC(=O)CC(c1ccc(OC)c(OC)c1)N1C(=O)c2cccc(O)c2C1=O (stereo unspecified) | 15
13 | COC(=O)CC(c1ccc(OC)c(OC)c1)N1C(=O)c2ccccc2C1=O (stereo unspecified) | 2.9
14 | CCNC(=O)CC(c1ccc(OC)c(OC)c1)N1C(=O)c2ccccc2C1=O (stereo unspecified) | 53
15 | COc1ccc(C(CCO)N2C(=O)c3ccccc3C2=O)cc1OC (stereo unspecified) | 7.5
16 | COc1ccc(C(CC(N)=O)N2C(=O)c3ccccc3C2=O)cc1OC (stereo unspecified) | 12
17 | COc1ccc(C(CC(=O)O)N2C(=O)c3ccccc3C2=O)cc1OC (stereo unspecified) | 60
18 | COC(=O)CC(c1ccc(OC)c(OC)c1)N1C(=O)c2ccc(N)cc2C1=O (stereo unspecified) | 0.38
19 | COC(=O)CC(c1ccc(OC)c(OC)c1)N1C(=O)c2cccc(N)c2C1=O (stereo unspecified) | 0.45
20 | N#Cc1cccc(C(CC(N)=O)N2C(=O)c3ccccc3C2=O)c1 (stereo unspecified) | 89
21 | CCOc1ccc(C(CC(N)=O)N2C(=O)c3ccccc3C2=O)cc1OCC (stereo unspecified) | 5.6
22 | COc1ccc(C(CC(N)=O)N2C(=O)c3ccccc3C2=O)cc1 (stereo unspecified) | 62
23 | COc1cc(OC)cc(C(CC(N)=O)N2C(=O)c3ccccc3C2=O)c1 (stereo unspecified) | 39
24 | COc1ccc(C(CC(=O)NCc2ccccc2)N2C(=O)c3ccccc3C2=O)cc1OC (stereo unspecified) | 84
25 | NC(=O)CC(c1ccccc1)N1C(=O)c2ccccc2C1=O (stereo unspecified) | 260
26 | NC(=O)CC(c1ccc2ccccc2c1)N1C(=O)c2ccccc2C1=O (stereo unspecified) | 51
